In patent publication US11141368B2, “Cosmetic composition, cosmetic treatment method, kit, and compound” (L'OREAL, priority 2010, dated 2021):

Experiments:
[1] = Porosity measurement of the locks of hair using a fluorescent probe; details: after 5 shampoo washes, 5% by weight in distilled water
[2] = Improvement of hair straightening: leave-in post-treatment of alkaline-straightened hair, visual observation; details: 5% by weight in distilled water
Description: Applied to hair (originally curly hair of curliness IV) straightened by an alkaline hair-straightening product (Goldys—2% active sodium hydroxide) is the following composition, with an amount of product/amount of hair ratio (g/g) of 2, without rinsing: • 5% by weight of compound (2) from Example 2 • qs for 100% distilled water
Observations are made at T0.
The locks are then washed once or 5 times using Ultra Mild shampoo (Garnier), then dried. Observations are made at T1 (after 1 shampoo wash) and at T5 (after 5 shampoo washes).
The control locks are treated with a composition comprising 100% distilled water.

Compound: Cc1cc(=O)nc(NC(=O)NCCCN(C)C)[nH]1 [Compound 2, N-[3-(dimethylamino)propyl]-N′-(6-methyl-4-oxo-1,4-dihydropyrimidin-2-yl)urea]
- internal porosity of the hair versus control hair [1]: equivalent porosity
- hair-straightening efficiency compared to control post-treatment (distilled water) ([2]; T0, product/hair ratio 2 g/g, no rinsing, hair straightened with 2% sodium hydroxide product): improved
- persistence of the improvement in hair-straightening efficiency after shampoo washes ([2]; T1 (after 1 shampoo wash) and T5 (after 5 shampoo washes)): persists
